Key:
[1] = biological target: T1, PpDUC1-N (dualchrome 1 phytochrome region) (Pycnococcus provasolii, UniProt A0A830HT85); assay: expression in PΦB-producing E. coli, UV-vis absorption; assay type: binding; conditions: covalent; difference spectrum; possibly data of Makita et al. 2021 shown again
T1 construct: gene PPROV_000692100; N-terminal phytochrome region (includes GAF and PHY domains) of the phytochrome-cryptochrome fusion; His-tagged, E. coli C41, about 75 kDa

AtPhyB = biological target: T2, AtPhyB (Arabidopsis thaliana, UniProt P14713); assay: co-expression with SyHO1 and ΔN_PpPcyA in E. coli, UV-vis absorption, Zn fluorescence, acid denaturation; assay type: binding; conditions: covalent; pH 7.5
T2 construct: gene PHYB; His-tagged, E. coli C41, band about 70 kDa, so a truncated photosensory region
T2 sequence (P14713 1-624 limits assumed): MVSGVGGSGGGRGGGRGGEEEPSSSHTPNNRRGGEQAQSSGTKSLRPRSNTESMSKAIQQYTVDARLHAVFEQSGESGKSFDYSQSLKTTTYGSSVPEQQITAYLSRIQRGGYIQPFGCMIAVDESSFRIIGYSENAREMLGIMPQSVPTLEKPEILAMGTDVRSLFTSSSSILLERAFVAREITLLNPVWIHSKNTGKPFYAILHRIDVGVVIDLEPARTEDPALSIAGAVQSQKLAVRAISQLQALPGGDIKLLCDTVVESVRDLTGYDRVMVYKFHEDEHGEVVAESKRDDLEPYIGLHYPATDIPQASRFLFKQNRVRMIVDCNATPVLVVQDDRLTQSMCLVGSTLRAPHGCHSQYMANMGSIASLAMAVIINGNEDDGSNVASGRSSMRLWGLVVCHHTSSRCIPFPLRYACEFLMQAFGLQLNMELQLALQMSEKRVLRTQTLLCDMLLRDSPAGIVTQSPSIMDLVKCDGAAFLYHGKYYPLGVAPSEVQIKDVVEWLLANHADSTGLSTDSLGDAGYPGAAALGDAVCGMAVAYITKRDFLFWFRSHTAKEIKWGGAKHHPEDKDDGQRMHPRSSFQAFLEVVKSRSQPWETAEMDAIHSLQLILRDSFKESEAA

T1 sequence (A0A830HT85 entry or part of it): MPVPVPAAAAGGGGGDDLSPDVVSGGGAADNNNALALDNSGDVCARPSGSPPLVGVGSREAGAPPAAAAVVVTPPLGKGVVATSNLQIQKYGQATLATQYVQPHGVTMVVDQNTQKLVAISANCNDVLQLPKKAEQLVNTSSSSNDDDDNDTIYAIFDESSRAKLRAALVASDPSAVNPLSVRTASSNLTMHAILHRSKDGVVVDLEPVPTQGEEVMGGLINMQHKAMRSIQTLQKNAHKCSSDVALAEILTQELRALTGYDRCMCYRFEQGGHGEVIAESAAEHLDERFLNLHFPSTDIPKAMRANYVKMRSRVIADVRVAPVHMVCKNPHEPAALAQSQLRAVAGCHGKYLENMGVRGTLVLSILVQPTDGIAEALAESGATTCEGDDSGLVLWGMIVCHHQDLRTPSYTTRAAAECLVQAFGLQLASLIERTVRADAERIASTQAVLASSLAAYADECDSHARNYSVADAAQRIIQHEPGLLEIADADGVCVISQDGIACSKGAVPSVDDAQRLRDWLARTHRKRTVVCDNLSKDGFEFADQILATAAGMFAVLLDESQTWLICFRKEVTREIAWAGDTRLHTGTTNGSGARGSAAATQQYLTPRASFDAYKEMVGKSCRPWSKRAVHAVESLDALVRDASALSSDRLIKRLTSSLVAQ

SMILES	expression in PΦB-producing E. coli, UV-vis absorption [1]	co-expression with SyHO1 and ΔN_PpPcyA in E. coli, UV-vis absorption, Zn fluores (AtPhyB)
C=CC1=C(C)C(=CC2=NC(=Cc3[nH]c(C=C4NC(=O)C(C)C4=CC)c(C)c3CCC(=O)O)C(CCC(=O)O)=C2C)NC1=O (centres unmarked) [PΦB]	difference spectrum of PpDUC1-N purified from PCB-producing and PΦB-producing E. coli	–
CC=C1C(=Cc2[nH]c(C=C3N=C(C=C4NC(=O)C(CC)=C4C)C(C)=C3CCC(=O)O)c(CCC(=O)O)c2C)NC(=O)C1C (centres unmarked) [PCB]	–	difference spectrum of AtPhyB coexpressed with ΔN_PpPcyA was nearly identical to that of PCB-binding AtPhyB

Source: article PMC11879098, “Phycocyanobilin Binding and Specific Amino Acid Residues Near The Chromophore Contribute To Orange Light Perception By The Dualchrome Phytochrome Region” (Plant and Cell Physiology, 2024)
